{
  "source": "patent US20210228523A1",
  "about": "“MODULATORS OF SESTRIN-GATOR2 INTERACTION AND USES THEREOF” (Navitor Pharmaceuticals, Inc., priority 2017, published 2021)",
  "key": {"mTORC1": {"tested_on": "mTORC1", "test": "Western blot of pS6 in rat brain and selected peripheral organs", "assay_type": "in vivo", "details": "Example D; NV-5138 160 mg/kg oral; 1 hr post-dose", "experimental": "Study Design: Thirty (30) male rats weighing between 175 and 200 g were randomized into 3 study groups (n=10), following a 5-day acclimation period. One hour following dosing rats were sacrificed by conscious decapitation, plasma, brain and selected peripheral tissues were harvested for compound level and WB analysis. Tissues were prepared for WB to quantitate the mTORC1 substrate pS6 as a measure of mTORC1 activity.\nThe dosing volume based on the weight of the animal (10 mL/kg) was administered by oral gavage. Test articles were prepared the day of dosing.\nTissues Preparations: One hour following dosing rats were sacrificed by conscious decapitation, plasma, brain and peripheral tissues were harvested and immediately frozen in liquid nitrogen. Tissues were thawed and homogenized for 1 min twice using MP homogenizer in Lysis Buffer (Cell lysis buffer: 1% Triton X-100, 50 mM HEPES pH 7.4, 100 mM NaCl, 2 mM EDTA, 10 mM Beta-glycerophosphate, 10 mM Sodium pyrophosphate, and 1 protease inhibitor tab per 50 mL fresh) at 4° C. Lysates were then sonicated on ice for 20 s at 50% amplitude. The protein concentration was determined by Bradford assay and all samples were mixed with loading buffer (50 mM Tris-HCl pH 6.8, 2% SDS, 5% glycerol, 5% β-mercaptoethanol and 0.01% Bromophenol blue) and stored at −20° C. until WB analysis.\nWestern Blot (WB) Analysis. Equal amounts of each sample (15 μg of total protein) were loaded and separated on NuPAGE 4-12% Bis-Tris gels and transferred to PVDF membrane (Immobilon-FL PVDF membrane, Millipore) using CAPS Buffer (10 mM 3-(Cyclohexylamino)-1-propanesulfonic acid, 12.5% Ethanol pH=10). After transfer, membranes were incubated for 1 hr at room temperature in Odyssey blocking buffer (Licor). After blocking, membranes were incubated at 4° C. overnight with primary antibodies. Primary antibodies used were rabbit anti-[…] (cell signaling; #5364) at 1:1000, mouse anti-GAPDH (Sigma; #G8795) at 1:1000 and mouse anti-a-tubulin (Sigma; #T5168) at 1:10000 in Odyssey blocking buffer. The next day, membranes were washed three times in 1×TBS-Tween (25 mM Tris, pH 7.4, 3.0 mM KCl, 140 mM NaCl and 0.05% Tween-20) and incubated with dye-coupled secondary antibodies (goat anti-mouse IRdye680, and goat anti-rabbit IRdye800 from LI-COR) at 1:20000 in Odyssey blocking buffer for 30 min then wash three times in IX TBS-Tween. Signals were quantified using the Odyssey Infrared Imaging System (LI-COR Bioscience). The resulting densitometric readings were used to generate a ratio of phopho-protein to a-tubulin or GAPDH. The resulting ratio was further normalized to vehicle treated control group."}, "[1]": {"tested_on": "layer V pyramidal neurons in PFC", "test": "Dendritic spine density and morphology analysis (two-photon imaging)", "assay_type": "in vivo, rat", "details": "Example H; NV-5138 160 mg/kg oral single dose; 24 hr", "experimental": "Study Design: Sixteen (16) male rats weighing between 175 and 200 g were randomized into 2 study groups (n=8), following a 5-day acclimation period. On study day 0, rats received a single dose of either NV vehicle (Veh, 0.5% methylcellulose/0.1% Tween-80) or NV-5138 (160 mg/kg), by oral gavage. On day 1, 24 hrs after dosing, rats were sacrificed, and brain slices were prepared and subjected to whole cell patch clamp recording of layer V pyramidal neurons in PFC.\nSpine Density Analysis. Labeled neurons within layer V of anterior cingulate (Cg1) and prelimbic mPFC (Cg3) were imaged with a two-photon Ti:sapphire laser scanning system for analysis of spine density and morphology (810 nanometers; Mai Tai, Spectra Physics, Mountain View, Calif.) coupled to direct detection Radiance 2000 BioRad laser scanner (Zeiss Micromaging, Thornwood, N.Y.) mounted on a Olympus BX50WI microscope, using a 60× (0.9 numerical aperture) water-immersion objective. This includes the total number of spines on proximal and distal tufts of layer V neurons, as well as the spine head diameter, and indication of spine maturation. The length of apical tuft branch segments is determined within the 3D matrix of each Z-stack by using Neurolucida 10.2 (MicroBrightField). Spine density and spine head diameter analysis are done with the Autospine module of Neurolucida Explorer (version 10.2) on the raw image stacks (2-5 optical sections, 1 μm apart). Spine density and segmentation (beading) were sampled in three zones: tips of tuft branches as they approach the pial membrane, intermediate dendrites approximately midway between the pial membrane and bifurcation of apical trunk, and proximal tuft dendrites just distal to the bifurcation. Results were expressed in terms of total dendritic length, spine density, and segmentation density. Results were expressed in terms of spine density per 10 μm."}},
  "data": [
    {"molecule": "CC(C)(C[C@H](N)C(=O)O)C(F)F", "note": "[NV-5138]", "values": [
      {"measurement": "level of pS6 in rat epididymal fat", "setting": "mTORC1", "value": "significantly increased"},
      {"measurement": "level of pS6 in rat heart", "setting": "mTORC1", "value": "significantly increased"},
      {"measurement": "level of pS6 in rat kidney", "setting": "mTORC1", "value": "significantly increased"},
      {"measurement": "level of pS6 in rat tibialis anterior", "setting": "mTORC1", "value": "significantly increased"},
      {"measurement": "pS6 levels in liver", "setting": "mTORC1", "value": "not the liver"},
      {"measurement": "pS6 levels in rat brain", "setting": "mTORC1", "value": "significant activation of mTORC1"},
      {"measurement": "pS6 levels in testes", "setting": "mTORC1", "value": "significant activation"},
      {"measurement": "mushroom spine subtype density", "setting": "[1]", "value": "specific increase"},
      {"measurement": "overall spine density in layer V pyramidal neuron dendrites", "setting": "[1]", "value": "significant increase"},
      {"measurement": "thin spine subtype density", "setting": "[1]", "value": "specific increase"}
    ]}
  ]
}
